Structures can show the parent of a compound that is named as a salt.
Molecular target: Human immunodeficiency virus type 1 reverse transcriptase (Human immunodeficiency virus 1, UniProt Q72547)
Details: read-out: IC50 (converted)

Structure (SMILES) | IC50
COc1cc2c3cc1Oc1cc(ccc1O)C[C@@H]1c4c(cc(OC)c(O)c4Oc4ccc(cc4)C[C@@H]3N(C)CC2)CC[N+]1(C)C | > 310 µM
COc1ccc2[nH]c3c(C)c4ccncc4c(C)c3c2c1 | < 543 µM
COc1coc(CO)cc1=O | > 1280 µM
C[C@H](O)C1=C[C@@]2(C=C[C@@H]3C(C(=O)O)=CO[C@@H](O[C@@H]4O[C@H](CO)[C@@H](O)[C@H](O)[C@H]4O)[C@@H]32)OC1=O | > 438 µM
C/C=C1/CN(C(C)=O)[C@H]2Cc3c([nH]c4ccccc34)C(=O)C[C@@H]1[C@@H]2C(=O)OC | > 526 µM
COc1ccc2c(c1OC)-c1cc(ccc1O)/C=C\C(=O)O[C@H]1C[C@@H]3CCCCN3[C@H]2C1 | > 460 µM
COc1c(O)cc(O)c2c(=O)c(O)c(-c3ccccc3)oc12 | > 734 µM
COC(=O)C1=CO[C@@H](O[C@@H]2O[C@H](CO)[C@@H](O)[C@H](O)[C@H]2O)[C@H]2[C@@H]1C=C[C@@]21C=C([C@H](C)OC(=O)/C=C/c2ccc(O)cc2)C(=O)O1 | > 324 µM
CC1=C(C)C(=O)O[C@@H]([C@](C)(O)[C@]2(O)CC[C@@]3(O)[C@@H]4C[C@H]5O[C@]56[C@@H](O)C=CC(=O)[C@]6(C)[C@H]4CC[C@]23C)C1 | > 398 µM
COc1c2occc2c(CC(O)C(C)(C)O)c2ccc(=O)oc12 (configuration not stated) | > 628 µM
CC[C@H]1CN2CCc3cc(OC)c(OC)cc3[C@@H]2C[C@@H]1C[C@H]1NCCc2cc(OC)c(OC)cc21 | > 387 µM
CC[C@@]12CCCN3CC[C@@]4(C(=Nc5c(OC)cccc54)CC1)[C@H]32 | > 644 µM
COc1cc2c(cc1OC)N1C(=O)C[C@]34C=CCN5CC[C@@H]2[C@@H](CC3)C514 | > 567 µM
CC[C@H]1CN2CCc3cc(OC)c(OC)cc3[C@@H]2C[C@@H]1CC1=NCCc2cc(OC)c(OC)cc21 | 17.3 µM
COc1c2c(c(O)c3ccoc13)C(=O)[C@H]1c3cc4c(cc3OC[C@H]1O2)OCO4 | > 523 µM
COc1cc2c(OC)c3ccoc3nc2cc1O | > 816 µM
COc1c2ccoc2nc2c(OC(C)=O)cccc12 [ACETYLROBUSRINE] | > 777 µM
COc1cc2c(c3c1c(=O)c1ccccc1n3C)C=CC(C)(C)O2 [ACRONINE] | > 622 µM
COc1cc2c(c3c1/c(=N\N=c1/c4ccccc4n(C)c4c5c(cc(OC)c14)OC(C)(C)C=C5)c1ccccc1n3C)C=CC(C)(C)O2 [ACRONYCINE AZINE] | > 313 µM
CC[C@H]1[C@@H]2C[C@H]3[C@@H]4N(C)c5ccccc5[C@]45C[C@@H]([C@@H]2[C@H]5O)N3[C@@H]1O [AJMALINE] | > 613 µM
COC(=O)C1=CO[C@@H](C)[C@@H]2Cn3ccc4c5ccccc5nc-4c3C[C@H]12 [ALSTONINE HYDROCHLORIDE] | < 390 µM
C[C@]12CCC(=O)C=C1CC[C@@H]1[C@@H]2CC[C@]2(C)C(=O)CC[C@@H]12 [ANDROSTENEDIONE] | > 698 µM
COC(=O)C1=CCCN(C)C1 [ARECOLINE HYDROBROMIDE] | > 847 µM
COC(=O)C1=CO[C@@H](C)[C@@H]2CN3CCc4c([nH]c5ccc(OC)cc45)[C@@H]3C[C@H]12 [ARICINE] | > 523 µM
CC(=O)N[C@H]1[C@H](O[C@H]2CC[C@]3(C)[C@H]4CC=C5[C@H]6CC(C)(C)CC[C@]6(C(=O)O)CC[C@@]5(C)[C@]4(C)CC[C@H]3C2(C)C)O[C@H](CO)[C@@H](O)[C@@H]1O [ARIDANIN] | > 303 µM
CC[C@@]12CCCN3CC[C@]4(c5cccc(OC)c5N(C(C)=O)[C@@H]4CC1)[C@H]32 [ASPIDOSPERMINE] | > 564 µM

Structure (SMILES) | IC50
COc1ccc2cc3[n+](cc2c1OC)CCc1cc2c(cc1-3)OCO2 [BERBERINE CHLORIDE] | 269 µM
C=C(C)[C@@H]1CC[C@]2(CO)CC[C@]3(C)[C@H](CC[C@@H]4[C@@]5(C)CC[C@H](O)C(C)(C)[C@@H]5CC[C@]43C)[C@@H]12 [BETULIN] | > 452 µM
COc1cc2c(cc1O)C[C@H]1c3c(cc(O)c(OC)c3-2)CCN1C [BOLDINE] | > 611 µM
COC(=O)[C@@]12OC[C@]34[C@H]([C@@H](O)[C@@H]1O)[C@@]1(C)CC(=O)C(O)=C(C)[C@@H]1C[C@H]3OC(=O)[C@H](OC(=O)/C=C(\C)C(C)C)[C@@H]24 [BRUCEANTIN] | > 365 µM
COc1cc2c(cc1OC)[C@@]13CCN4CC5=CCO[C@H]6CC(=O)N2[C@H]1[C@H]6[C@H]5C[C@H]43 [BRUCINE] | > 507 µM
CC[C@@]1(O)C(=O)OCc2c1cc1n(c2=O)Cc2cc3ccccc3nc2-1 [CAMPTOTHECIN] | > 574 µM
COc1ccc2c(c1OC)C[N+]1(C)CCc3cc4c(cc3C1C2)OCO4 (configuration not stated) [CANADINE METHCHLORIDE] | > 513 µM
C[C@H]1/C(=C/C(=O)OCCN(C)C)CC[C@H]2[C@H]1C(=O)C[C@H]1C(C)(C)[C@@H](OS(=O)(=O)O)CC[C@]21C [CASSAINE SULFATE] | > 412 µM
CCC1=C[C@@H]2CN3CCc4c([nH]c5ccccc45)[C@](C(=O)OC)(C2)[C@@H]13 [CATHARANTHINE HYDROCHLORIDE] | > 536 µM
COc1ccc2c(c[n+](C)c3c4cc5c(cc4ccc23)OCO5)c1OC [CHELERYTHRINE CHLORIDE] | < 521 µM
CN1Cc2c(ccc3c2OCO3)[C@@H]2[C@H]1c1cc3c(cc1C[C@@H]2O)OCO3 [CHELIDONINE] | < 566 µM
C=C[C@H]1C[N@@]2CC[C@H]1C[C@@H]2[C@@H](O)c1ccnc2ccccc12 [CINCHONINE] | > 679 µM
COc1cc2c(c(OC)c1OC)-c1ccc(OC)c(=O)cc1[C@@H](NC(C)=O)CC2 [COLCHICINE] | > 501 µM
COc1cc2c(cc1O)-c1cc3ccc(OC)c(OC)c3c[n+]1CC2 [COLUMBAMINE IODIDE] | 125 µM
CC[C@]12CCc3[nH]c4ccccc4c3CCN(C[C@H]3O[C@H]31)C2 [CONOFLORINE] | > 675 µM
CC[C@H]1C[C@@H]2CN3CCc4c([nH]c5cc(OC)c(OC)cc45)[C@](C(=O)OC)(C2)[C@H]13 [CONOPHARYNGINE] | > 502 µM
CC[C@@H]1CN2CCc3c([nH]c4ccccc34)[C@@H]2C[C@@H]1/C(=C\OC)C(=O)OC [CORYNANRHEIDINE] | > 543 µM
COC(=O)[C@H]1[C@H]2C[C@H]3c4[nH]c5ccccc5c4CCN3C[C@@H]2CC[C@@H]1O [CORYNANTHEINE] | > 564 µM
COc1cccc2c1C(=O)c1c(O)c3c(c(O)c1C2=O)C[C@@](O)(C(C)=O)C[C@@H]3O[C@H]1C[C@H](N)[C@H](O)[C@H](C)O1 [DAUNORUBICIN] | 237 µM
COC(=O)[C@@H]1[C@@H](OC)[C@H](OC(=O)c2cc(OC)c(OC)c(OC)c2)C=C2CN3CCc4c([nH]c5ccccc45)[C@@H]3C[C@@H]21 [DESERPIDEINE HYDROCHLORIDE] | > 326 µM
COC(=O)[C@H]1[C@H]2C[C@@H]3c4[nH]c5ccccc5c4CCN3C[C@H]2C[C@@H](OC(=O)c2cc(OC)c(OC)c(OC)c2)[C@@H]1OC [DESERPIDINE] | > 346 µM
COc1cc2c(c3c1c(=O)c1ccccc1n3C)CCC(C)(C)O2 [DIHYDROACRONYCINE] | > 618 µM
COc1ccc2c(c1OC)CN1CCc3cc4c(cc3C1=C2)OCO4 [DIHYDROBERBERINE] | > 593 µM
O=c1oc2c(O)c(O)cc3c(=O)oc4c(O)c(O)cc1c4c23 [ELLAGIC ACID] | < 496 µM
Cc1c2ccncc2c(C)c2c1[nH]c1ccccc12 [ELLIPTECINE] | < 609 µM
CN[C@@H](C)[C@H](O)c1ccccc1 [EPHEDRINE SULFATE] | > 933 µM

From ChEMBL document CHEMBL1137798, “Evaluation of natural products as inhibitors of human immunodeficiency virus type 1 (HIV-1) reverse transcriptase” (J Nat Prod, 1991)
